Measurements reported in patent US20210332320A1, “ANTIMICROBIC SUSCEPTIBILITY TESTING USING MACHINE LEARNING” (Beckman Coulter, Inc., priority 2018, published 2021).

Experiments:
Assay type in all cases: cell-based
P. fluorescens [1] = test: Actual MIC (reference read after full growth period)
Experimental: In AST testing, a plurality of test wells are filled with inoculum and increasing concentrations of a number of different antimicrobial agents, for example antibiotics. The different antimicrobial agents may be diluted in a growth medium or liquid medium to concentrations that include those of clinical interest. After incubation, the turbidity will be increased or unchanged in test wells where growth has not been inhibited by the antimicrobics in those test wells. The MIC of each antimicrobial agent is measured by lack of growth with respect to each concentration of antimicrobial agent. It follows that the lowest concentration of antimicrobial agent displaying a lack of growth is the MIC. As set forth above, neural networks can be used to model growth patterns of a bacterial isolate over time at various drug concentrations. As long as the bacteria grows in the well with no drug, then a neural network can be created to use the count and area of the growth well and at the various drug concentrations to make an early prediction of the MIC. […]

P. fluorescens [2] = test: MIC prediction by neural network from digital microscopy of AST test wells
Excerpt: FIG. 8 provides an illustration of how data that can be used in an optimized AST method 101 can be captured from a test well. Test well 20 is embodied by a “384” style test well, having a clear viewing bottom. The volume of inoculum in test well 20 may be set to 20 microliters to reduce the amount of materials such as bulk diluents required by AST method 101 and/or minimize light artifacts and provide sampling of a consistent number of microbes from the 1:250 dilution of the 0.5 MacFarland inoculum. Decreasing the volume of inoculum in test well 20 generally increases the light artifacts. In some instances, capturing a single vertical plane 103 at 20× objective whereby AST camera 35 is set at 0.33 microns/pixel may be sufficient for sampling the inoculum and ensuring that each individual microbe is recognizable. However, these parameters are configurable and may change as desired by the user or the underlying needs of the system. Capturing three focal sites spaced about 5 microns apart within single vertical plane 103 may also provide a sufficient number of microbes in the sample to count for use in optimized AST method 101. These three focal sites are labeled site 105, site 107, and site 109 in FIG. 8. In an exemplary version of optimized AST method 101, each focal site is approximately 700×700 microns within single vertical plane 103, rather than capturing three sites in three different vertical planes. AST camera 35, optics system 9, and computer 49 are configured to capture an image of each focal site in consecutive time periods, manipulate each of these images, and thereafter use the data derived from these manipulated images to make a MIC determination. In some embodiments, to use a neural network such as illustrated in FIG. 24 to make a MIC prediction, a test well containing some concentration of an antimicrobial could be inoculated with a microorganism. Data could then be gathered by taking measurements in a manner similar to that described above in the context of the decision tree and neural network classifiers of FIGS. 20-23B and 25. These measurements, along with the identity and concentration of the antimicrobial in the test well could then be provided as inputs to the neural network's input nodes. The values provided on the network's output nodes could then be treated as indications of the likelihood that the concentrations corresponding to the output nodes were the MIC for the microorganism added to the test well. For example, when using a network which had been trained to provide a likelihood that a first concentration is the MIC on a first output node, a likelihood that a second concentration is the MIC on a second output node, and a likelihood that a third concentration is the MIC on a third output node, the concentration corresponding to the output node with the highest value (which might not be the same as the concentration of the antimicrobial in the test well from which the data was gathered) could be treated as the MIC. In some embodiments, rather than using values of the output nodes of a network such as shown in FIG. 24 as directly indicating the MIC, values from such output nodes may be used as inputs to another function that would provide a (potentially more reliable) MIC value. For example, in some embodiments, separate sets of measurements could be gathered from each of a plurality of test wells having different concentrations of the same antimicrobial, and those sets of measurements could each be provided as input to a neural network such as illustrated in FIG. 24. Each of those neural networks would then provide a prediction of the most likely MIC, and those predictions could be provided as input to another function (e.g., a statistical function, such as a mode or median identification function) that would provide a prediction that would be treated as the true MIC for the sample.

E. coli bacteria = test: Digital microscopy of E. coli bacteria exposed to antibiotic dilution (elongation); conditions: FIG. 17 versus unexposed FIG. 18
Excerpt: Data extraction step 117 may be configured to derive information regarding the ratio between the total count of microbes and the total area occupied by all of the microbes in the image. This information may be useful in determining whether the microbes are undergoing elongation over time. Elongation is a precursor to death and indicates the concentration of the antimicrobic dilution is negatively affecting the microbes. More specifically, elongation may occur when microbes such as bacteria encounter an effective amount of antibiotic drugs. For example, FIGS. 17 and 18 depict microbes embodied by E. coli bacteria. FIG. 17 depicts the E. coli after being exposed to a dilution of the antibiotic ampicillin, while FIG. 18 depicts the E. coli free from any ampicillin exposure. […] This elongation is a precursor to the death of the bacteria and illustrates that the concentration of ampicillin is sufficient to neutralize the bacteria. FIG. 18 illustrates normal growth. It follows that the ratio between the total area occupied by all of the bacteria and the bacteria count will increase over time to represent each bacterium elongating. For example, if a particular image sample includes 100 bacteria and each bacterium measures approximately 4 pixels each, the area occupied by the 100 bacteria within the image is 400 pixels. In this image sample, the ratio of bacteria area to bacteria count is 4.0. […]

| SMILES | actual MIC (P. fluorescens [1]) | final predicted MIC (P. fluorescens [2]; median of the predictions of the 11 drug concentration wells) | Predicted MIC (P. fluorescens [2]; prediction from test well with dilution 0.06 μg/ml) [mg/L] | Predicted MIC (P. fluorescens [2]; prediction from test well with dilution 0.12 μg/ml) [mg/L] | Predicted MIC (P. fluorescens [2]; prediction from test well with dilution 0.25 μg/ml) [mg/L] | Predicted MIC (P. fluorescens [2]; prediction from test well with dilution 0.5 μg/ml) [mg/L] | Predicted MIC (P. fluorescens [2]; prediction from test well with dilution 1 μg/ml) [mg/L] | Predicted MIC (P. fluorescens [2]; prediction from test well with dilution 2 μg/ml) [mg/L] | Predicted MIC (P. fluorescens [2]; prediction from test well with dilution 4 μg/ml) [mg/L] | Predicted MIC (P. fluorescens [2]; prediction from test well with dilution 8 μg/ml) [mg/L] | Predicted MIC (P. fluorescens [2]; prediction from test well with dilution 16 μg/ml) [mg/L] | Predicted MIC (P. fluorescens [2]; prediction from test well with dilution 32 μg/ml) [mg/L] | Predicted MIC (P. fluorescens [2]; prediction from test well with dilution 64 μg/ml) [mg/L] | growth morphology after exposure to a dilution of the antibiotic (E. coli bacteria) |
| --- | --- | --- | --- | --- | --- | --- | --- | --- | --- | --- | --- | --- | --- | --- |
| CC(C)(O/N=C(\C(=O)N[C@@H]1C(=O)N2C(C(=O)[O-])=C(C[n+]3ccccc3)CS[C@H]12)c1csc(N)n1)C(=O)O [Caz, Ceftazidime] | example was 2. μg/ml | which in this case is 2. μg/ml | 2 | 2 | 2 | 2 | 2 | 2 | 32 | 2 | 2 | 2 | 2 |  |
| CC1(C)S[C@@H]2[C@H](NC(=O)[C@H](N)c3ccccc3)C(=O)N2[C@H]1C(=O)O [ampicillin] |  |  |  |  |  |  |  |  |  |  |  |  |  | abnormal growth in the form of elongation |
